Data from patent US7972793B2, “Methods and compositions for the treatment of psychotic disorders through the identification of the SULT4A1-1 haplotype” (Suregene, LLC, priority 2009, dated 2011).

What was measured:
[1] = test system: CATIE Caucasian schizophrenia patients; assay: CATIE Phase 1 drug response: change in total PANSS (LOCF), drug switchers, segmented by SULT4A1-1 status; type: in vivo, human; details: for ≦−20% (number of individuals with this percent change in total PANSS; responders) / ≧−20% (number of individuals with this percent change in total PANSS; non-responders): CATIE Caucasians, LOCF
Description: There are several different metrics for quantifying response in clinical trials of antipsychotic medications. The most commonly used psychometric instrument is the Positive and Negative Syndrome Scale (PANSS), a 30-item semi-quantitative instrument scored by clinical professionals (Kay et al., 1987). The greater the decrease in PANSS score, the better the clinical response. The most direct measure of clinical response is absolute change in PANSS score. In addition to absolute change, the improvement is often reported as a percentage change from baseline PANSS score.
A decrease of at least 20% in total PANSS is one commonly used threshold for response (Leucht et al., 2009).
The design of the CATIE study has been described in detail by others (Lieberman et al., 2005; Stroup et al., 2003). […] A total of 738 subjects consented to provide DNA for genetic study. […] Retrospective genetic analyses, judged to be exempt from human studies requirements by an IRB, were conducted in the current study.
All tested patients were studied using well established clinical endpoints comparing baseline, intermediate, and last observation carried forward (LOCF) for the PANSS scores using CATIE data. LOCF analysis is a commonly used clinical endpoint for clinical trials for neuropsychiatric drugs, with changes in PANSS scores of between negative 20% and negative 30% used as typical endpoints to indicate clinically significant response (Leucht et al., 2009). To remove time on drug as a variable for the CATIE trial, analysis was limited to only those patients who were randomized to a different drug following the initial washout period (drug switchers).
As mentioned previously, the mean change in absolute or percent PANSS provides an important measure of efficacy in patients undergoing antipsychotic treatments. Indeed, many pivotal trials in the psychosis field used absolute and/or percentage change in PANSS Score as the primary endpoint (Leucht et al., 2009). […] Therefore, in addition to examining a categorical definition of clinically significant response, the inventors determined the impact of segmentation by SULT4A1-1 status on the quantitative measure of clinical improvement—delta PANSS.

CATIE Caucasian subjects = assay: Rate of hospitalization due to exacerbation of psychosis in CATIE by SULT4A1-1 status; type: in vivo, human; details: CATIE Phases 1, 2 and/or 3
Description: For this analysis, the inventors assigned a dichotomous value (positive or negative) for hospitalization status to subjects in each phase of the trial based on only the first hospitalization event for a given patient in that phase.

[2] = Table 16, 20% decrease in PANSS threshold, SULT4A1-1 positive group (sign not given)

SMILES: OCCOCCN1CCN(C2=Nc3ccccc3Sc3ccccc32)CC1 [Quetiapine]
- Mean Difference in Total PANSS Score, Olanzapine vs. labelled drug ([1]; CATIE SULT4A1-1 −): −3.8
- Mean Difference in Total PANSS Score, Olanzapine vs. labelled drug ([1]; CATIE unsegmented): −6.2
- ≦−20% (number of individuals with this percent change in total PANSS; responders) ([1]; SULT4A1-1 Negative): 13
- ≧−20% (number of individuals with this percent change in total PANSS; non-responders) ([1]; SULT4A1-1 Negative): 50
- ≦−20% (number of individuals with this percent change in total PANSS; responders) ([1]; SULT4A1-1 Positive): 7
- ≧−20% (number of individuals with this percent change in total PANSS; non-responders) ([1]; SULT4A1-1 Positive): 11
- Non Responder (number) [1, 2]: 11
- Responder (number) [1, 2]: 7
- HOSP (number of subjects hospitalized) (CATIE Caucasian subjects; SULT4A1-1 Positive): 1
- HOSP (rate of hospitalization) (CATIE Caucasian subjects; SULT4A1-1 Positive): (2.9%)
- HOSP (number of subjects hospitalized) (CATIE Caucasian subjects; SULT4A1-1 negative): 24
- HOSP (rate of hospitalization) (CATIE Caucasian subjects; SULT4A1-1 negative): (19.5%)
- HOSP (number of subjects hospitalized) (CATIE Caucasian subjects; Unsegmented): 25
